The subject of one assay is S. aureus (ATCC 29213). As to the kind of experiment: Bacterial assay: MIC against S. aureus. Type of assay: cell-based, Staphylococcus aureus. The settings on record: Staphylococcus aureus, ATCC29213, read-out: minimal inhibitory concentration (MIC).
Another assay deals with S. pyogenes (ATCC 51339). In words: Bacterial assay: MIC against S. pyogenes. In kind it is cell-based, Streptococcus pyogenes. The settings on record: Streptococcus pyogenes, ATCC51339, read-out: minimal inhibitory concentration (MIC).
The test system of assay [1] is H. influenzae (ATCC 49247). As to the kind of experiment: Bacterial assay: MIC against H. influenzae. Type of assay: cell-based. The settings on record: Haemophilus influenzae, ATCC49247; H. influenzae ATCC 49247; read-out: minimal inhibitory concentration (MIC).

Regarding `CCNC(=O)Nc1nc2cc(-c3cnc(C(C)(C)O)nc3)cc(-c3cc(CN4CC[C@@H](F)C4)ccn3)c2s1` [Compound 36, 1-ethyl-3-[7-[4-[[(3R)-3-fluoropyrrolidin-1-yl]methyl]-2-pyridyl]-5-[2-(1-hydroxy-1-methyl-ethyl)pyrimidin-5-yl]-1,3-benzothiazol-2-yl]urea], the figures for the MIC (in the assay on S. aureus (ATCC 29213); in the assay on S. pyogenes (ATCC 51339); in assay [1]) were not above 1 µg/mL, not above 1 µg/mL and not above 2 µg/mL, respectively.
As for `CCNC(=O)Nc1nc2cc(-c3cnc(C(C)(C)O)nc3)cc(-c3cc(OCCCN4CCOCC4)ccn3)c2s1` [Compound 38, 1-ethyl-3-[5-[2-(1-hydroxy-1-methyl-ethyl)pyrimidin-5-yl]-7-[4-(3-morpholinopropoxy)-2-pyridyl]-1,3-benzothiazol-2-yl]urea], the MIC in the assay on S. aureus (ATCC 29213) was not above 1 µg/mL; in the assay on S. pyogenes (ATCC 51339), not above 1 µg/mL; in assay [1], not above 2 µg/mL.
As to `CCNC(=O)Nc1nc2cc(-c3cnc(C(C)(C)O)nc3)cc(-c3cnccn3)c2s1` [Compound 39, 1-ethyl-3-[5-[2-(1-hydroxy-1-methyl-ethyl)pyrimidin-5-yl]-7-pyrazin-2-yl-1,3-benzothiazol-2-yl]urea], the MIC in the assay with S. aureus (ATCC 29213) was not above 1 µg/mL; with S. pyogenes (ATCC 51339) it was not above 1 µg/mL; in assay [1], not above 2 µg/mL.
As for `CCNC(=O)Nc1nc2cc(-c3cnc(C(O)CO)nc3)cc(-c3ccccn3)c2s1` (stereo not drawn) [Compound 40, 1-[5-[2-(1,2-dihydroxyethyl)pyrimidin-5-yl]-7-(2-pyridyl)-1,3-benzothiazol-2-yl]-3-ethyl-urea], the values for the MIC (in the assay on S. aureus (ATCC 29213); in the assay on S. pyogenes (ATCC 51339); in assay [1]) were not above 1 µg/mL, not above 1 µg/mL and not above 2 µg/mL, respectively.
Take `CCNC(=O)Nc1nc2cc(-c3cnc(C(C)(C)O)nc3)cc(-c3cc(C)ncn3)c2s1` [Compound 43, 1-ethyl-3-[5-[2-(1-hydroxy-1-methyl-ethyl)pyrimidin-5-yl]-7-(6-methylpyrimidin-4-yl)-1,3-benzothiazol-2-yl]urea]: the MIC in the assay with S. aureus (ATCC 29213) was not above 1 µg/mL; in the assay on S. pyogenes (ATCC 51339), not above 1 µg/mL; in assay [1] it was not above 2 µg/mL.
Turning to `CCNC(=O)Nc1nc2cc(-c3cnc(C(C)(C)O)nc3)cc(-c3cc(CNC4CC4)ccn3)c2s1` [Compound 53, 1-[7-[4-[(cyclopropylamino)methyl]-2-pyridyl]-5-[2-(1-hydroxy-1-methyl-ethyl)pyrimidin-5-yl]-1,3-benzothiazol-2-yl]-3-ethyl-urea], the MIC in the assay with S. aureus (ATCC 29213) is not above 1 µg/mL; in the assay with S. pyogenes (ATCC 51339) it was not above 1 µg/mL; in assay [1], not above 2 µg/mL.
Take `CCNC(=O)Nc1nc2cc(-c3cnc(C(C)O)nc3)cc(-c3cc(CN4CCOCC4)ccn3)c2s1` (stereo not drawn) [Compound 55, 1-ethyl-3-[5-[2-(1-hydroxyethyl)pyrimidin-5-yl]-7-[4-(morpholinomethyl)-2-pyridyl]-1,3-benzothiazol-2-yl]urea]: the MIC in the assay on S. aureus (ATCC 29213) is not above 1 µg/mL; with S. pyogenes (ATCC 51339), not above 1 µg/mL; in assay [1], not above 2 µg/mL.
On to `CCNC(=O)Nc1nc2cc(-c3cnc(C(C)(C)O)nc3)cc(-c3ccc(OCCN4CCOCC4)cn3)c2s1` [Compound 56, 1-ethyl-3-[5-[2-(1-hydroxy-1-methyl-ethyl)pyrimidin-5-yl]-7-[5-(2-morpholinoethoxy)-2-pyridyl]-1,3-benzothiazol-2-yl]urea], for which the figures for the MIC (in the assay on S. aureus (ATCC 29213); with S. pyogenes (ATCC 51339); in assay [1]) were not above 1 µg/mL, not above 1 µg/mL and not above 2 µg/mL, respectively.
For `CCNC(=O)Nc1nc2cc(-c3cnc(C(O)C4CC4)nc3)cc(-c3ccccn3)c2s1` (stereo not drawn) [Compound 58, 1-[5-[2-[cyclopropyl(hydroxy)methyl]pyrimidin-5-yl]-7-(2-pyridyl)-1,3-benzothiazol-2-yl]-3-ethyl-urea], the figures for the MIC (with S. aureus (ATCC 29213); with S. pyogenes (ATCC 51339); in assay [1]) were not above 1 µg/mL, not above 1 µg/mL and not above 2 µg/mL, respectively.
Regarding `CCNC(=O)Nc1nc2cc(-c3cnc(C(O)CC)nc3)cc(-c3ccccn3)c2s1` (stereo not drawn) [Compound 59, 1-ethyl-3-[5-[2-(1-hydroxypropyl)pyrimidin-5-yl]-7-(2-pyridyl)-1,3-benzothiazol-2-yl]urea], the MIC with S. aureus (ATCC 29213) was not above 1 µg/mL; in the assay with S. pyogenes (ATCC 51339), not above 1 µg/mL; in assay [1] it was not above 2 µg/mL.
As for `CCCC(O)c1ncc(-c2cc(-c3ccccn3)c3sc(NC(=O)NCC)nc3c2)cn1` (stereo not drawn) [Compound 61, 1-ethyl-3-[5-[2-(1-hydroxybutyl)pyrimidin-5-yl]-7-(2-pyridyl)-1,3-benzothiazol-2-yl]urea], the MIC in the assay on S. aureus (ATCC 29213) was not above 1 µg/mL; with S. pyogenes (ATCC 51339), not above 1 µg/mL; in assay [1], not above 2 µg/mL.
Take `CCNC(=O)Nc1nc2cc(-c3cnc([C@@H](C)OC(=O)[C@H](N)C(C)C)nc3)cc(-c3ccccn3)c2s1` [Compound 62, [(1R)-1-[5-[2-(ethylcarbamoylamino)-7-(2-pyridyl)-1,3-benzothiazol-5-yl]pyrimidin-2-yl]ethyl] (2R)-2-amino-3-methyl-butanoate]: the MIC in the assay with S. aureus (ATCC 29213) is not above 1 µg/mL; with S. pyogenes (ATCC 51339), not above 1 µg/mL; in assay [1] it was not above 2 µg/mL.
Regarding `CCNC(=O)Nc1nc2cc(-c3cnc([C@H](C)OC(=O)[C@H](N)C(C)C)nc3)cc(-c3ccccn3)c2s1` [Compound 63, [(1S)-1-[5-[2-(ethylcarbamoylamino)-7-(2-pyridyl)-1,3-benzothiazol-5-yl]pyrimidin-2-yl]ethyl] (2R)-2-amino-3-methyl-butanoate], the MIC is not above 1 µg/mL in the assay on S. aureus (ATCC 29213), not above 1 µg/mL with S. pyogenes (ATCC 51339) and not above 2 µg/mL in assay [1].
For the compound `CCNC(=O)Nc1nc2cc(-c3cnc(C(C)O)nc3)cc(-c3cc(CN4CC[C@H](F)C4)ccn3)c2s1` (stereo partly drawn) [Compound 64, 1-ethyl-3-[7-[4-[[(3S)-3-fluoropyrrolidin-1-yl]methyl]-2-pyridyl]-5-[2-(1-hydroxyethyl)pyrimidin-5-yl]-1,3-benzothiazol-2-yl]urea], the figures for the MIC (in the assay on S. aureus (ATCC 29213); in the assay on S. pyogenes (ATCC 51339); in assay [1]) were not above 1 µg/mL, not above 1 µg/mL and not above 2 µg/mL, respectively.
Turning to `CCNC(=O)Nc1nc2cc(-c3cnc(C(C)O)nc3)cc(-c3cc(CN4CCOCC4C)ccn3)c2s1` (stereo not drawn) [Compound 68, 1-ethyl-3-[5-[2-(1-hydroxyethyl)pyrimidin-5-yl]-7-[4-[(3-methylmorpholin-4-yl)methyl]-2-pyridyl]-1,3-benzothiazol-2-yl]urea], the results for the MIC (in the assay on S. aureus (ATCC 29213); in the assay with S. pyogenes (ATCC 51339); in assay [1]) were not above 1 µg/mL, not above 1 µg/mL and not above 2 µg/mL, respectively.
Regarding `CCNC(=O)Nc1nc2cc(-c3cnc(C(C)O)nc3)cc(-c3cc(CN4C[C@@H](C)O[C@@H](C)C4)ccn3)c2s1` (stereo partly drawn) [Compound 69, 1-[7-[4-[[(2R,6S)-2,6-dimethylmorpholin-4-yl]methyl]-2-pyridyl]-5-[2-(1-hydroxyethyl)pyrimidin-5-yl]-1,3-benzothiazol-2-yl]-3-ethyl-urea], the MIC in the assay with S. aureus (ATCC 29213) was not above 1 µg/mL; with S. pyogenes (ATCC 51339), not above 1 µg/mL; in assay [1], not above 2 µg/mL.
As for `[2H]C1([2H])OC([2H])([2H])C([2H])([2H])N(Cc2ccnc(-c3cc(-c4cnc(C(C)O)nc4)cc4nc(NC(=O)NCC)sc34)c2)C1([2H])[2H]` (stereo not drawn) [Compound 70, 1-ethyl-3-[5-[2-(1-hydroxyethyl)pyrimidin-5-yl]-7-[4-[(2,2,3,3,5,5,6,6-octadeuteriomorpholin-4-yl)methyl]-2-pyridyl]-1,3-benzothiazol-2-yl]urea], the MIC in the assay with S. aureus (ATCC 29213) is not above 1 µg/mL; in the assay on S. pyogenes (ATCC 51339), not above 1 µg/mL; in assay [1] it was not above 2 µg/mL.
As for `CCNC(=O)Nc1nc2cc(-c3cnc(C(C)O)nc3)cc(-c3cc(CN4CC(C)OCC4C)ccn3)c2s1` (stereo not drawn) [Compound 71, 1-[7-[4-[(2,5-dimethylmorpholin-4-yl)methyl]-2-pyridyl]-5-[2-(1-hydroxyethyl)pyrimidin-5-yl]-1,3-benzothiazol-2-yl]-3-ethyl-urea], the results for the MIC (in the assay with S. aureus (ATCC 29213); in the assay on S. pyogenes (ATCC 51339); in assay [1]) were not above 1 µg/mL, not above 1 µg/mL and not above 2 µg/mL, respectively.
In the case of `CCNC(=O)Nc1nc2cc(-c3cnc(C(C)O)nc3)cc(-c3cc(CN4CC5(COC5)C4)ccn3)c2s1` (stereo not drawn) [Compound 73, 1-ethyl-3-[5-[2-(1-hydroxyethyl)pyrimidin-5-yl]-7-[4-(6-oxa-2-azaspiro[3.3]heptan-2-ylmethyl)-2-pyridyl]-1,3-benzothiazol-2-yl]urea], the MIC with S. aureus (ATCC 29213) was not above 1 µg/mL; in the assay with S. pyogenes (ATCC 51339), not above 1 µg/mL; in assay [1] it was not above 2 µg/mL.
For the compound `CCNC(=O)Nc1nc2cc(-c3cnc(N4CCC(C)(C(=O)O)CC4)nc3)cc(-c3cc(C(C)(C)O)ccn3)c2s1` [Compound 74, 1-[5-[2-(ethylcarbamoylamino)-7-[4-(1-hydroxy-1-methyl-ethyl)-2-pyridyl]-1,3-benzothiazol-5-yl]pyrimidin-2-yl]-4-methyl-piperidine-4-carboxylic acid], the MIC was not above 1 µg/mL with S. aureus (ATCC 29213), not above 1 µg/mL in the assay with S. pyogenes (ATCC 51339) and not above 2 µg/mL in assay [1].
With `CCNC(=O)Nc1nc2cc(-c3cnc(C(C)O)nc3)cc(-c3cc(OCCN4CCOCC4)ccn3)c2s1` (stereo not drawn) [Compound 75, 1-ethyl-3-[5-[2-(1-hydroxyethyl)pyrimidin-5-yl]-7-[4-(2-morpholinoethoxy)-2-pyridyl]-1,3-benzothiazol-2-yl]urea], the MIC in the assay with S. aureus (ATCC 29213) is not above 1 µg/mL; in the assay with S. pyogenes (ATCC 51339), not above 1 µg/mL; in assay [1], not above 2 µg/mL.
Regarding `CCNC(=O)Nc1nc2cc(-c3cnc(C(C)O)nc3)cc(-c3cc(CN4CC(OC)C4)ccn3)c2s1` (stereo not drawn) [Compound 76, 1-ethyl-3-[5-[2-(1-hydroxyethyl)pyrimidin-5-yl]-7-[4-[(3-methoxyazetidin-1-yl)methyl]-2-pyridyl]-1,3-benzothiazol-2-yl]urea], the MIC was not above 1 µg/mL with S. aureus (ATCC 29213), not above 1 µg/mL in the assay with S. pyogenes (ATCC 51339) and not above 2 µg/mL in assay [1].
In the case of `CCNC(=O)Nc1nc2cc(-c3cnc(C(C)(C)O)nc3)cc(-c3cc(OCCOC)ccn3)c2s1` [Compound 80, 1-ethyl-3-[5-[2-(1-hydroxy-1-methyl-ethyl)pyrimidin-5-yl]-7-[4-(2-methoxyethoxy)-2-pyridyl]-1,3-benzothiazol-2-yl]urea], the MIC in the assay on S. aureus (ATCC 29213) is not above 1 µg/mL; with S. pyogenes (ATCC 51339) it was not above 1 µg/mL; in assay [1], not above 2 µg/mL.
On to `CCNC(=O)Nc1nc2cc(-c3cnc(C(O)CN4CCOCC4)nc3)cc(-c3ccccn3)c2s1` (stereo not drawn) [Compound 81, 1-ethyl-3-[5-[2-(1-hydroxy-2-morpholino-ethyl)pyrimidin-5-yl]-7-(2-pyridyl)-1,3-benzothiazol-2-yl]urea], for which the MIC in the assay with S. aureus (ATCC 29213) was not above 1 µg/mL; in the assay with S. pyogenes (ATCC 51339), not above 1 µg/mL; in assay [1], not above 2 µg/mL.

For the origin of these results see patent US20170260178A1 (SPERO GYRASE, INC., priority 2012, published 2017).
